# Reference: US8658573B2, “Photo-generated carbohydrate arrays and the rapid identification of pathogen-specific antigens and antibodies” (priority 2006, dated 2014)
# System: rabbit anti-B. anthracis spore polyclonal IgG antibodies
# Assay type: binding
SMILES,"IgG signal detected by carbohydrate arrays (n = 3), Mean",recognition of surface-bound carbohydrate by the antibody (FIG. 2A/2B)
COC(=O)CCCCCO[C@@H]1O[C@@H](C)[C@H](O)[C@@H](O[C@@H]2O[C@H](C)[C@@H](NC(=O)CC(C)(C)O)[C@H](O)[C@H]2OC)[C@H]1O [compound 2],1.65,–
COC(=O)CCCCCO[C@@H]1O[C@@H](C)[C@H](O)[C@@H](O[C@@H]2O[C@@H](C)[C@H](O)[C@@H](O)[C@H]2O)[C@H]1O [compound 16],1.00,–
"COC(=O)CCCCCO[C@@H]1O[C@@H](C)[C@H](O)[C@@H](O)[C@H]1O[C@@H]1O[C@@H](C)[C@H](O)[C@@H](O[C@@H]2O[C@@H](C)[C@H](O)[C@@H](O[C@@H]3O[C@H](C)[C@@H](NC(=O)CC(C)(C)O)[C@H](O)[C@H]3OC)[C@H]2O)[C@H]1O [Id# 5, 5-(Methoxycarbonyl)-pentyl 4-(3-hydroxy-3-methylbutanamido)-2-O-methyl-4,6-dideoxy-β-D-glucopyranosyl-(1→3)-α-L-rhamnopyranoyl-(1→3)-α-L-rhamnopyranosyl-(1→2)-α-L-rhamnopyranoside]",–,recognized by the antibody
COC(=O)CCCCCO[C@H]1O[C@@H](C)[C@H](O)[C@@H](O)[C@H]1O [compound 15],0.95,–
"COC(=O)CCCCCO[C@@H]1O[C@@H](C)[C@H](O)[C@@H](O)[C@H]1O[C@@H]1O[C@@H](C)[C@H](O)[C@@H](O[C@@H]2O[C@H](C)[C@@H](NC(=O)CC(C)(C)O)[C@H](O)[C@H]2OC)[C@H]1O [Id# 3, 5-(Methoxycarbonyl)-pentyl 4-(3-hydroxy-3-methylbutanamido)-2-O-methyl-4,6-dideoxy-β-D-glucopyranosyl-(1→3)-α-L-rhamnopyranosyl-(1→2)-α-L-rhamnopyranoside]",–,recognized by the antibody
COC(=O)CCCCCO[C@@H]1O[C@@H](C)[C@H](O)[C@@H](O)[C@H]1O[C@@H]1O[C@@H](C)[C@H](O)[C@@H](O)[C@H]1O [compound 18],1.26,–
COC(=O)CCCCCO[C@@H]1O[C@@H](C)[C@H](O)[C@@H](O)[C@H]1O[C@@H]1O[C@@H](C)[C@H](O)[C@@H](O[C@@H]2O[C@@H](C)[C@H](O)[C@@H](O)[C@H]2O)[C@H]1O [compound 17],0.98,–
"COC(=O)CCCCCO[C@H]1O[C@@H](C)[C@H](O)[C@@H](O)[C@H]1O[C@@H]1O[C@@H](C)[C@H](O)[C@@H](O[C@@H]2O[C@@H](C)[C@H](O)[C@@H](O[C@@H]3O[C@H](C)[C@@H](NC(=O)CC(C)(C)O)[C@H](O)[C@H]3OC)[C@H]2O)[C@H]1O [Id# 4, 5-(Methoxycarbonyl)-pentyl 4-(3-hydroxy-3-methylbutanamido)-2-O-methyl-4,6-dideoxy-β-D-glucopyranosyl-(1→3)-α-L-rhamnopyranoyl-(1→3)-α-L-rhamnopyranosyl-(1→2)-β-L-rhamnopyranoside]",–,recognized by the antibody
CO[C@@H]1O[C@@H](C)[C@H](O)[C@@H](O[C@@H]2O[C@@H](C)[C@H](O)[C@@H](O)[C@H]2O)[C@H]1O [compound 24],1.02,–
CO[C@H]1O[C@H](CO)[C@H](O)[C@H](O)[C@H]1O[C@@H]1O[C@@H](C)[C@H](O)[C@@H](O[C@@H]2O[C@@H](C)[C@H](O)[C@@H](O[C@H]3O[C@H](CO)[C@@H](O)[C@H](O)[C@H]3NC(C)=O)[C@H]2O)[C@H]1O [compound 22],0.95,–
COC(=O)CCCCCO[C@H]1O[C@@H](C)[C@H](O)[C@@H](O)[C@H]1O[C@@H]1O[C@@H](C)[C@H](O)[C@@H](O[C@@H]2O[C@@H](C)[C@H](O)[C@@H](O)[C@H]2O)[C@H]1O [compound 20],0.95,–
COC(=O)CCCCCO[C@@H]1O[C@@H](C)[C@H](O)[C@@H](O)[C@H]1O[C@@H]1O[C@@H](C)[C@H](O)[C@@H](O[C@@H]2O[C@H](C)[C@@H](NC(=O)CC(C)(C)O)[C@H](O)[C@H]2OC)[C@H]1O [compound 3],2.73,–
COC(=O)CCCCCO[C@@H]1O[C@H](C)[C@@H](NC(=O)CC(C)(C)O)[C@H](O)[C@H]1OC [compound 1],1.44,–
COC1O[C@H](CO)[C@H](O)[C@H](O)[C@H]1O[C@@H]1O[C@@H](C)[C@H](O)[C@@H](O)[C@H]1O (some centres unmarked) [compound 21],1.08,–
COC(=O)CCCCCO[C@H]1O[C@@H](C)[C@H](O)[C@@H](O)[C@H]1O[C@@H]1O[C@@H](C)[C@H](O)[C@@H](O[C@@H]2O[C@@H](C)[C@H](O)[C@@H](O[C@@H]3O[C@H](C)[C@@H](NC(=O)CC(C)(C)O)[C@H](O)[C@H]3OC)[C@H]2O)[C@H]1O [compound 4],5.16,–
COC(=O)CCCCCO[C@@H]1O[C@@H](C)[C@H](O)[C@@H](O)[C@H]1O [compound 14],0.97,–
CO[C@H]1O[C@H](CO)[C@@H](O)[C@H](O[C@H]2O[C@H](CO)[C@H](O)[C@H](O)[C@H]2O[C@@H]2O[C@@H](C)[C@H](O)[C@@H](O)[C@H]2O)[C@H]1NC(C)=O [compound 23],1.01,–
CC(=O)N[C@@H](C=O)[C@@H](O)[C@@H](O)[C@H](O)CO [compound 11],1.03,–
COC(=O)CCCCCO[C@H]1O[C@@H](C)[C@H](O)[C@@H](O)[C@H]1O[C@@H]1O[C@@H](C)[C@H](O)[C@@H](O)[C@H]1O [compound 19],0.98,–
COC(=O)CCCCCO[C@@H]1O[C@@H](C)[C@H](O)[C@@H](O)[C@H]1O[C@@H]1O[C@@H](C)[C@H](O)[C@@H](O[C@@H]2O[C@@H](C)[C@H](O)[C@@H](O[C@@H]3O[C@H](C)[C@@H](NC(=O)CC(C)(C)O)[C@H](O)[C@H]3OC)[C@H]2O)[C@H]1O [compound 5],5.19,–
